Source: patent publication US20260347338A1, “PYRIMIDINE/PYRIDINE DERIVATIVES OR SALTS THEREOF AND PHARMACEUTICAL COMPOSITIONS COMPRISING THE SAME” (YUHAN CORPORATION, priority 2023, published 2026)
Structures can show the parent of a compound that is named as a salt.

Target: T1, human recombinant HPK1 (Homo sapiens, UniProt Q92918)
T1 construct: purchased BPS Bioscience
Test: Inhibitory activity against human recombinant HPK1 (TR-FRET)
Format: biochemical
Conditions: ULight-p70S6K peptide, ATP at Km, room temperature, 1 hour, 0.32 to 1000 nM compound
Protocol: Test Example: Evaluation of Inhibitory Activity Against Human Recombinant HPK1
The inhibitory activity against human recombinant HPK1 was evaluated using the Time-Resolved Fluorescence Resonance Energy Transfer (TR-FRET) technology of Perkin-Elmer. The test compound was prepared as a 20 mM stock solution with dimethyl sulfoxide (DMSO), serially diluted in a buffer solution, and used at final compound concentrations of 0.32 to 1000 nM. The evaluation of inhibitory activity was carried out at room temperature, using recombinant human HPK1 (BPS Bioscience). Briefly, recombinant human HPK1, serially diluted each test compound, ULight-p70S6K peptide substrate (PerkinElmer), and ATP at each concentration (Km and final concentration) were added to a kinase buffer solution (50 mM HEPES pH 7.4, 10 mM MgCl2, 1 mM EGTA, 3 mM MnCl2, 2 mM DTT, and 0.01% Tween-20). The resulting mixture was added to each well of a 384-well plate (Optiplate™ 384, white, PerkinElmer). The enzyme reaction was carried out at room temperature for 1 hour. After the reaction was suspended by adding 4 μL of a stop solution (10 mM EDTA) thereto, the mixture was stirred for 1 minute and then a detection solution containing Europium-labeled anti-phosphopeptide antibody (final concentration: 2 nM, PerkinElmer) was added thereto. The signals of TR-FRET at excitation wavelength (320 nm) and emission wavelength (665 nm) were detected using a microplate reader (Envision Multilabel Reader, Perkin-Elmer). Inhibition by the test compound was measured as % inhibition in the signals, compared to the control group treated with DMSO only. The IC50 value of each compound was calculated using the GraphPad Prism program (GraphPad Software, Inc., San Diego, CA, USA). The IC50 values of test compounds for inhibitory activity against HPK1 were classified as follows: • A: IC50≤10 nM • B: 10 nM<IC50≤50 nM • C: 50 nM<IC50≤100 nM • D: IC50>100 nM

T1 sequence (Q92918 whole entry): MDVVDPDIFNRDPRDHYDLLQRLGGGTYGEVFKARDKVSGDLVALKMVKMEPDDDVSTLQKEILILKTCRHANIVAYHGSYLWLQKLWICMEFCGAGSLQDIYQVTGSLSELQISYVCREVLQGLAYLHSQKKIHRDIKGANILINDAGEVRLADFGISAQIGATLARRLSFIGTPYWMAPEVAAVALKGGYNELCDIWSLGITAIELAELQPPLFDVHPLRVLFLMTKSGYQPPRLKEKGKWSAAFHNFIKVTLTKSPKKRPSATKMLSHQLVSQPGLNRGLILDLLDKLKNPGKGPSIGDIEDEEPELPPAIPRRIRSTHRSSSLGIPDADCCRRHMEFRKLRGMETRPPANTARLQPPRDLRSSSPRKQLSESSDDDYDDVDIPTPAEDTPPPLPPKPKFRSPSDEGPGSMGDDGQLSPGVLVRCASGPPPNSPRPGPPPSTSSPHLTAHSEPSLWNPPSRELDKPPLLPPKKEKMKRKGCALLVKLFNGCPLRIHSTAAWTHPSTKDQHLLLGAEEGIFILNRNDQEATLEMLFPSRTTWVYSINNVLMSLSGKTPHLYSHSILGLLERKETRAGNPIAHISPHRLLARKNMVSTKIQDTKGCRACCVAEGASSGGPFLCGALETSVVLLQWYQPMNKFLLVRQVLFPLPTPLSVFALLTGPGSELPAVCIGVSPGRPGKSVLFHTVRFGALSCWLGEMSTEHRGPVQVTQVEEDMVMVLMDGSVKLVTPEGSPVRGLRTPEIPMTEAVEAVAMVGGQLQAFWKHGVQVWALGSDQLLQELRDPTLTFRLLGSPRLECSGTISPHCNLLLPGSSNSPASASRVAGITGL

SMILES | IC50 [nM]
COc1c(F)ccc(F)c1-c1nccc(Nc2cc(N3CCC[C@H](O)C3)c(-c3cnn(C4CCOCC4)c3)cn2)n1 [Example 23, (S)-1-(2-((2-(3,6-difluoro-2-methoxyphenyl)pyrimidin-4-yl)amino)-5-(1-(tetrahydro-2H-pyran-4-yl)-1H-pyrazol-4-yl)pyridin-4-yl)piperidin-3-ol] | 10 to 50
COc1cccc(F)c1-c1nccc(Nc2cc(N3CCC[C@H](O)C3)c(-c3ccc(CN4CCC(N)CC4)nc3)cn2)n1 [Example 55, (S)-1-(6′-((4-aminopiperidin-1-yl)methyl)-6-((2-(2-fluoro-6-methoxyphenyl)pyrimidin-4-yl)amino)-[3,3′-bipyridin]-4-yl)piperidin-3-ol hydrochloride] | 10 to 50
COc1cccc(F)c1-c1nccc(Nc2cc(N3CCC[C@H](N)C3)c(-c3cnn(CCC(N)=O)c3)cn2)n1 [Example 167, (S)-3-(4-(4-(3-aminopiperidin-1-yl)-6-((2-(2-fluoro-6-methoxyphenyl)pyrimidin-4-yl)amino)pyridin-3-yl)-1H-pyrazol-1-yl)propanamide hydrochloride] | ≤ 10
COCCn1cc(-c2cnc(Nc3ccnc(-c4c(F)cccc4OC)n3)cc2N2CCC[C@H](N)C2)cn1 [Example 91, (S)-N-(4-(3-aminopiperidin-1-yl)-5-(1-(2-methoxyethyl)-1H-pyrazol-4-yl)pyridin-2-yl)-2-(2-fluoro-6-methoxyphenyl)pyrimidin-4-amine hydrochloride] | ≤ 10
COc1cc(F)cc(F)c1-c1nccc(Nc2cc(N3CCC[C@H](N)C3)c(C#CC3CCOCC3)cn2)n1 [Example 110, (S)-N-(4-(3-aminopiperidin-1-yl)-5-((tetrahydro-2H-pyran-4-yl)ethynyl)pyridin-2-yl)-2-(2,4-difluoro-6-methoxyphenyl)pyrimidin-4-amine] | ≤ 10
CN[C@H]1CCCN(c2cc(Nc3ccnc(-c4c(F)cccc4OC)n3)ncc2-c2cnn(C(F)F)c2)C1 [Example 122, (S)-N-(5-(1-(difluoromethyl)-1H-pyrazol-4-yl)-4-(3-(methylamino)piperidin-1-yl)pyridin-2-yl)-2-(2-fluoro-6-methoxyphenyl)pyrimidin-4-amine hydrochloride] | ≤ 10
COc1cccc(F)c1-c1nccc(Nc2cc(N3CCC[C@@H](O)C3)c(C#Cc3cnn(C(F)(F)F)c3)cn2)n1 [Example 9, (R)-1-(2-((2-(2-fluoro-6-methoxyphenyl)pyrimidin-4-yl)amino)-5-((1-(trifluoromethyl)-1H-pyrazol-4-yl)ethynyl)pyridin-4-yl)piperidin-3-ol] | 10 to 50
COc1cccc(F)c1-c1nc(Nc2cc(N3CCC[C@H](O)C3)c(-c3cnn(C(F)(F)F)c3)cn2)ccc1N [Example 178, (3S)-1-(2-((5-amino-6-(2-fluoro-6-methoxyphenyl)pyridin-2-yl)amino)-5-(1-(trifluoromethyl)-1H-pyrazol-4-yl)pyridin-4-yl)piperidin-3-ol] | ≤ 10
COc1cccc(F)c1-c1nccc(Nc2cc(N3CCC[C@H](N)C3)c(-c3cnn(CCN4CCCC4)c3)cn2)n1 [Example 163, (S)-N-(4-(3-aminopiperidin-1-yl)-5-(1-(2-(pyrrolidin-1-yl)ethyl)-1H-pyrazol-4-yl)pyridin-2-yl)-2-(2-fluoro-6-methoxyphenyl)pyrimidin-4-amine hydrochloride] | ≤ 10
COc1cccc(F)c1-c1nc(Nc2cc(N3CCC[C@H](N)C3)c(-c3cnn(C(F)(F)F)c3)cn2)ccc1[N+](=O)[O-] [Example 154, 4-((S)-3-aminopiperidin-1-yl)-N-(6-(2-fluoro-6-methoxyphenyl)-5-nitropyridin-2-yl)-5-(1-(trifluoromethyl)-1H-pyrazol-4-yl)pyridin-2-amine hydrochloride] | ≤ 10
COc1cccc(F)c1-c1nccc(Nc2cc(N3CCC[C@H](O)C3)c(C(=O)C3CC3)cn2)n1 [Example 5, (S)-cyclopropyl(6-((2-(2-fluoro-6-methoxyphenyl)pyrimidin-4-yl)amino)-4-(3-hydroxypiperidin-1-yl)pyridin-3-yl)methanone] | 10 to 50
COc1cccc(F)c1-c1nccc(Nc2cc(N3CC(O)C3)c(C#CC3CCOCC3)cn2)n1 [Example 10, 1-(2-((2-(2-fluoro-6-methoxyphenyl)pyrimidin-4-yl)amino)-5-((tetrahydro-2H-pyran-4-yl)ethynyl)pyridin-4-yl)azetidin-3-ol] | 10 to 50

Now from value to compound:

IC50 [nM] | SMILES
≤ 10 | COc1cccc(F)c1-c1nc(Nc2cc(N3CCC[C@H](O)C3)c(C(=O)N[C@@H]3CC[C@@H](N)C3)cn2)ccc1[N+](=O)[O-] [Example 199, N-((1R,3R)-3-aminocyclopentyl)-6-((6-(2-fluoro-6-methoxyphenyl)-5-nitropyridin-2-yl)amino)-4-((S)-3-hydroxypiperidin-1-yl)nicotinamide hydrochloride]
≤ 10 | COc1cccc(F)c1-c1nccc(Nc2cc(N3CCC[C@H](N)C3)c(-c3cnn(C4CCNCC4)c3)cn2)n1 [Example 283, (S)-N-(4-(3-aminopiperidin-1-yl)-5-(1-(piperidin-4-yl)-1H-pyrazol-4-yl)pyridin-2-yl)-2-(2-fluoro-6-methoxyphenyl)pyrimidin-4-amine hydrochloride]
≤ 10 | COc1cc(F)cc(F)c1-c1nc(Nc2cc(N3CCC[C@H](O)C3)c(-c3cnn(CC(F)F)c3)cn2)ccc1N [Example 226, (3S)-1-(2-((5-amino-6-(2,4-difluoro-6-methoxyphenyl)pyridin-2-yl)amino)-5-(1-(2,2-difluoroethyl)-1H-pyrazol-4-yl)pyridin-4-yl)piperidin-3-ol]
≤ 10 | COc1cccc(F)c1-c1nccc(Nc2cc(N3CCC[C@H](N)C3)c(-c3cc(C)c(OC)c(C)c3)cn2)n1 [Example 285, (S)-N-(4-(3-aminopiperidin-1-yl)-5-(4-methoxy-3,5-dimethylphenyl)pyridin-2-yl)-2-(2-fluoro-6-methoxyphenyl)pyrimidin-4-amine hydrochloride]
≤ 10 | COc1cccc(F)c1-c1nc(Nc2cc(N3CC[C@@H](F)[C@H](O)C3)c(-c3cnn(C(F)F)c3)cn2)ccc1C#N [Example 331, 6-((5-(1-(difluoromethyl)-1H-pyrazol-4-yl)-4-((3R,4R)-4-fluoro-3-hydroxypiperidin-1-yl)pyridin-2-yl)amino)-2-(2-fluoro-6-methoxyphenyl)nicotinonitrile]
≤ 10 | COc1cccc(F)c1-c1nccc(Nc2cc(N3CCC[C@H](CF)C3)c(-c3cnn(C(F)F)c3)cn2)n1 [Example 272, (S)-N-(5-(1-(difluoromethyl)-1H-pyrazol-4-yl)-4-(3-(fluoromethyl)piperidin-1-yl)pyridin-2-yl)-2-(2-fluoro-6-methoxyphenyl)pyrimidin-4-amine]
10 to 50 | COc1cc(F)cc(F)c1-c1nc(Nc2cc(N3CCC[C@H](O)C3)c(CCC3CCOCC3)cn2)ccc1N [Example 228, (3S)-1-(2-((5-amino-6-(2,4-difluoro-6-methoxyphenyl)pyridin-2-yl)amino)-5-(2-(tetrahydro-2H-pyran-4-yl)ethyl)pyridin-4-yl)piperidin-3-ol]
≤ 10 | COc1cc(F)cc(F)c1-c1nccc(Nc2cc(N3CCC[C@H](O)C3)c(-c3cnn(C(F)F)c3)cn2)n1 [Example 182, (S)-1-(2-((2-(2,4-difluoro-6-methoxyphenyl)pyrimidin-4-yl)amino)-5-(1-(difluoromethyl)-1H-pyrazol-4-yl)pyridin-4-yl)piperidin-3-ol]
≤ 10 | COc1cccc(F)c1-c1nccc(Nc2cc(N3CCC[C@H](N)C3)c(-c3cnn(CCCN(C)C)c3)cn2)n1 [Example 236, (S)-N-(4-(3-aminopiperidin-1-yl)-5-(1-(3-(dimethylamino)propyl)-1H-pyrazol-4-yl)pyridin-2-yl)-2-(2-fluoro-6-methoxyphenyl)pyrimidin-4-amine hydrochloride]
≤ 10 | COc1cccc(F)c1-c1nc(Nc2cc(N3CC[C@@H](N)[C@H](O)C3)c(-c3cnn(C(F)F)c3)cn2)ccc1C#N [Example 326, 6-((4-((3R,4R)-4-amino-3-hydroxypiperidin-1-yl)-5-(1-(difluoromethyl)-1H-pyrazol-4-yl)pyridin-2-yl)amino)-2-(2-fluoro-6-methoxyphenyl)nicotinonitrile]
≤ 10 | COc1cc(C(=O)N(C)C)cc(F)c1-c1nccc(Nc2cc(N3CCC[C@H](N)C3)c(-c3cnn(C(F)F)c3)cn2)n1 [Example 187, (S)-4-(4-((4-(3-aminopiperidin-1-yl)-5-(1-(difluoromethyl)-1H-pyrazol-4-yl)pyridin-2-yl)amino)pyrimidin-2-yl)-3-fluoro-5-methoxy-N,N-dimethylbenzamide hydrochloride]
